Measured values: patent US8114886B2, “Pyridylmethylsulfone derivative” (Daiichi Sankyo Company, Limited, priority 2005, dated 2012)
pEC50: −log10 of the molar value. “Also recorded” adds a separate entry of the source. Read-outs that look alike come from different tables or passages of the source.

Tests used:
[1] = system: β-amyloid protein (Aβ) secreted by E35 cells (H4 cells with APP751 gene); assay: Screening system using E35 cells for inhibition of production/secretion of β-amyloid protein (sandwich ELISA of Aβ in culture medium); format: cell-based, human; conditions: 24 hours with compound, Aβ in culture supernatant by ELISA, read-out: Inhibitory Activity for Production of A(EC50)
Description: The activity of the compound inhibiting β-amyloid protein production was measured on E35 cells prepared by introducing APP751 gene, a gene of a human wild type β-amyloid protein precursor protein, to human glioma cells (H4 cells), by quantifying the amount of β-amyloid protein (Aβ) secreted to the culture medium by means of a sandwich type Enzyme-Linked Immunosorbent Assay (ELISA) method.
That is, E35 cells inoculated on a 96-well plate were cultured in an incubator at 37° C. which was maintained at equilibrium with 5% carbon dioxide, using Dulbecco's Modified Eagle's Medium containing inactivated 10% fetal bovine serum as the culture medium. After 24 hours from the inoculation, a test compound dissolved in a DMSO solution was added. The DMSO solution of the test compound was prepared at a concentration of 2000 times of the final concentration, such that the DMSO concentration in the culture medium would be 0.05%. After culturing for another 24 hours, the culture supernatant was recovered, and this was added to a 96-well plate for ELISA onto which a monoclonal antibody against Aβ, 25-1, was solid-phased. The plate was incubated at 4° C. for 16 to 20 hours. The plate was washed with phosphate buffer solution (pH 7.4), and then a biotinylated monoclonal antibody against Aβ, MA32-40, was added thereto. The plate was left to stand at 4° C. for 2 hours. The plate was washed again with phosphate buffer solution, and then alkaline phosphatase-conjugated streptavidin was added to conjugate streptavidin to biotin. Subsequently, the plate was washed with phosphate buffer solution. To this, Blue Phos (Kirkegaard & Perry Laboratories, Inc.) was added. After incubating the plate for an appropriate time, the reaction was terminated with an acid, and the absorbance for each well was measured. The amount of Aβ contained in the culture supernatant was determined from a calibration curve which was produced separately, and the amount was compared with that of control cells to which the compound was not added. Thus, the concentration at which 50% of the Aβ production is inhibited (EC50 value) was calculated. In addition, the 25-1 antibody and MA32-40 antibody used in ELISA were mouse monoclonal antibodies derived from the hybridoma cell clone lines, which were each produced and selected according to a standard method using Aβ25-35 and Aβ1-8 as antigens, respectively, and which specifically recognize their respective antigens. […]
The scores indicate ++++ for the case where EC50 was 5 nM or less; +++ for the case where EC50 was 5 to 50 nM; ++ for the case where EC50 was 50 to 500 nM; and + for the case where EC50 was 500 nM to 5 μM.

[2] = system: intracerebral amount of Aβ; assay: Assessment of β-amyloid protein production inhibitory action and immunosuppressing action in vivo; conditions: male SD rats, oral, single dose, cerebrum Aβ after 3 hours, repeated administration for 7 days for immunosuppression
From the text: As an example of the compound (1), the compounds described in Example 22, Example 85, Example 101, Example 106 or Example 118 (respectively, compound represented by the above formula (1-1), (1-2), (1-3), (1-4) or (1-5), which will be hereinafter referred respectively to compound (1-1), (1-2), (1-3), (1-4) or (1-5)), or the control compound LY, was suspended in a 0.5% aqueous solution of methylcellulose, and the suspension was orally administered in a single dose to male SD rats (about 5 weeks old). For the solvent control group, a 0.5% aqueous solution of methylcellulose was administered alone. After 3 hours of administration, the brain was excised, and the cerebrum was collected. The cerebrum was homogenized with a 42% aqueous solution of formic acid, and was centrifuged at 100,000×g for 60 minutes. The resulting supernatant was neutralized with 1 M Tris, and the Aβ concentration in these samples were measured using the sandwich type ELISA method as described in Test Example 1. Furthermore, the compound (1-1) to (1-5) or control compound LY was orally administered to male SD rats repeatedly for 7 days, and the rats were subjected to histopathological and serological examinations, so as to assess the immunosuppressing effect of the compound.

| pEC50 ([1]; Homo sapiens) | melting point [°C] | SMILES | other results |
| --- | --- | --- | --- |
| ≥ 8.30 | – | Cc1cc(C(=O)NCO)ncc1C(c1c(F)ccc(F)c1F)S(=O)(=O)c1ccccc1 (centres unmarked) [Example 106, N-(1-hydroxymethyl)-4-methyl-5-[(phenylsulfonyl)(2,3,6-trifluorophenyl)methyl]pyridine-2-carboxamide] | difference between the dose exhibiting a statistically significant decrease in the intracerebral amount of Aβ and the dose exhibiting an immunosuppressing effect ([2]; listed as (1-4)): sufficient differences were recognized |
| ≥ 8.30 | – | Cc1cc(C(=O)NCO)ncc1C(c1c(F)ccc(F)c1F)S(=O)(=O)c1ccc(F)cc1 (centres unmarked) [Example 101, 5-[[(4-Fluorophenyl)sulfonyl](2,3,6-trifluorophenyl)methyl]-N-(1-hydroxymethyl)-4-methylpyridine-2-carboxamide] | difference between the dose exhibiting a statistically significant decrease in the intracerebral amount of Aβ and the dose exhibiting an immunosuppressing effect ([2]; listed as (1-3)): sufficient differences were recognized |
| – | – | CC(C)[C@H](O)C(=O)N[C@@H](C)C(=O)N[C@@H]1C(=O)N(C)CCc2ccccc21 [LY, (N)—((S)-2-hydroxy-3-methyl-butyryl)-1-(L-alaninyl)-(S)-1-amino-3-methyl-4,5,6,7-tetrahydro-2H-3-benzoazepin-2-one, reference compound] | pEC50 [1]: 7.30 to 8.30; difference between the dose exhibiting a statistically significant decrease in the intracerebral amount of Aβ and the dose exhibiting an immunosuppressing effect [2]: no sufficient difference was recognized |
| ≥ 8.30 | 164 to 166 | Cc1cc(C(=O)NCO)ncc1C(c1cc(F)ccc1F)S(=O)(=O)c1ccc(F)cc1 (centres unmarked) [Example 85, 5-[(2,5-difluorophenyl)[(4-fluorophenyl)sulfonyl]methyl]-N-(1-hydroxymethyl)-4-methylpyridine-2-carboxamide] | difference between the dose exhibiting a statistically significant decrease in the intracerebral amount of Aβ and the dose exhibiting an immunosuppressing effect ([2]; listed as (1-2)): sufficient differences were recognized |
| ≥ 8.30 | 181 to 182 | Cc1cc(C(=O)NCO)ncc1C(c1c(F)ccc(F)c1F)S(=O)(=O)c1ccc(C(F)(F)F)nc1 (centres unmarked) [Example 118, N-(1-hydroxymethyl)-4-methyl-5-[[[6-(trifluoromethyl)pyridin-3-yl]sulfonyl](2,3,6-trifluorophenyl)methyl]pyridine-2-carboxamide] | difference between the dose exhibiting a statistically significant decrease in the intracerebral amount of Aβ and the dose exhibiting an immunosuppressing effect ([2]; listed as (1-5)): sufficient differences were recognized |
| ≥ 8.30 | 177 to 178 | Cc1cc(C(=O)NCO)ncc1C(c1c(F)ccc(F)c1F)S(=O)(=O)c1ccc(Cl)cc1 (centres unmarked) [Example 120, 5-[[(4-Chlorophenyl)sulfonyl](2,3,6-trifluorophenyl)methyl]-N-(hydroxymethyl)-4-methylpyridine-2-carboxamide] | – |
| 6.30 to 7.30 | 207 to 208 | Cc1cc(C(=O)N(C)C)ncc1C(c1cc(F)ccc1F)S(=O)(=O)c1ccc(Cl)cc1 (centres unmarked) [Example 5, 5-[[(4-Chlorophenyl)sulfonyl](2,5-difluorophenyl)methyl]-N,N,4-trimethylpyridine-2-carboxamide] | – |
| ≥ 8.30 | 182 to 185 | Cc1cc(C(=O)NCCCS(C)(=O)=O)ncc1C(c1cc(F)ccc1F)S(=O)(=O)c1ccc(F)cc1 (centres unmarked) [Example 74, 5-[(2,5-Difluorophenyl)[(4-fluorophenyl)sulfonyl]methyl]-4-methyl-N-[3-(methylsulfonyl)propyl]pyridine-2-carboxamide] | – |
| ≥ 8.30 | 170 to 173 | Cc1cc(C(=O)NCCC[S+](C)[O-])ncc1C(c1cc(F)ccc1F)S(=O)(=O)c1ccc(F)cc1 (centres unmarked) [Example 73, 5-[(2,5-Difluorophenyl)[(4-fluorophenyl)sulfonyl]methyl]-4-methyl-N-[3-(methylsulfinyl)propyl]pyridine-2-carboxamide] | – |
| ≥ 8.30 | 241 to 242 | Cc1cc(C(N)=O)ncc1C(c1cc(F)ccc1F)S(=O)(=O)c1ccc(Cl)cc1 (centres unmarked) [Example 9, 5-[[(4-Chlorophenyl)sulfonyl](2,5-difluorophenyl)methyl]-4-methylpyridine-2-carboxamide] | – |
| 5.30 to 6.30 | – | Cc1cc(C(=O)N(C)C)ncc1C(c1cc(F)ccc1F)[S+]([O-])c1ccc(F)cc1 (centres unmarked) [Example 22, 5-[(2,5-Difluorophenyl)[(4-fluorophenyl)sulfinyl]methyl]-N,N,4-trimethylpyridine-2-carboxamide] | difference between the dose exhibiting a statistically significant decrease in the intracerebral amount of Aβ and the dose exhibiting an immunosuppressing effect ([2]; listed as (1-1)): sufficient differences were recognized; also recorded: sufficient difference |
| ≥ 8.30 | 150 to 152 | Cc1cc(C(=O)NC(CO)CO)ncc1C(c1cc(F)ccc1F)S(=O)(=O)c1ccc(F)cc1 (centres unmarked) [Example 75, 5-[(2,5-Difluorophenyl)[(4-fluorophenyl)sulfonyl]methyl]-N-[2-hydroxy-1-(hydroxymethyl)ethyl]-4-methylpyridine-2-carboxamide] | – |
| 5.30 to 6.30 | 165 to 167 | Cc1cc(C(=O)N2CCOCC2)ncc1C(c1cc(F)ccc1F)S(=O)(=O)c1ccc(F)cc1 (centres unmarked) [Example 77, 4-[[5-[(2,5-Difluorophenyl)[(4-fluorophenyl)sulfonyl]methyl]-4-methylpyridin-2-yl]carbonyl]morpholine] | – |
| ≥ 8.30 | 153 to 154 | Cc1cc(C(=O)NCCO)ncc1C(c1cc(F)ccc1F)S(=O)(=O)c1ccc(F)cc1 (centres unmarked) [Example 17, 5-[(2,5-Difluorophenyl)[(4-fluorophenyl)sulfonyl]methyl]-N-(2-hydroxyethyl)-4-methylpyridine-2-carboxamide] | – |
| ≥ 8.30 | 237 to 238 | Cc1cc(C(N)=O)ncc1C(c1c(F)ccc(F)c1F)S(=O)(=O)c1ccc(C(F)(F)F)nc1 (centres unmarked) [Example 117, 4-Methyl-5-[[[6-(trifluoromethyl)pyridin-3-yl]sulfonyl](2,3,6-trifluorophenyl)methyl]pyridine-2-carboxamide] | – |
